Series [1] has as its system Caco-2 cells. The series can be described thus: Apoptosis by propidium iodide staining and flow cytometry. The format is cell-based, human. The method, then: (§1) The apoptosis occurrence and influence of the dye 12 on the cell cycle were evaluated using propidium iodide (PI) staining and flow cytometry, as described by Riccardi and Nicolleti. After the near confluency of the culture, trypsinisation, and counting, Caco-2 cells were seeded (2 mL, 3 × 10^4 cells/mL) in 6-well plates. After 48 h of adherence, the cells were treated with the test solutions (3 mL and 5 mL for negative control) and incubated for 72 h. Untreated cells were used as the negative control, and sorbitol and 5-FU [56] were used as positive controls for the apoptosis and cell cycle distribution studies, respectively. After incubation, the supernatant was collected and the cells were washed with PBS and combined with the cells harvested using the trypsin treatment. This cell suspension was maintained on ice and centrifugated, and then the pellet was resuspended in 0.5 mL of PBS. The cells were fixed by adding 4.5 mL of 70% ethanol cooled at −20 °C and were stored at the same temperature. For the cytometry analysis, PBS was added to the fixed cells before centrifugation, and then the ethanolic supernatant was removed. The pellet was resuspended in 0.5 mL of PBS and 0.5 mL of DNA extraction (192 mL of 0.2 M sodium phosphate and 8 mL of […], pH 7.8) was added. After incubation for 5 min, the cells were centrifuged, the supernatant was removed, and the pellet resuspended in 0.3 mL of staining solution (20 µg/mL of PI and 0.2 mg/mL of DNase-free RNase in PBS). Using a FACSCalibur flow cytometer and the 488 nm laser line, a minimum of 20,000 events were recorded. Acquisition and apoptosis analysis was performed using BD CellQuestTM Pro 4.0.2 Software. Cell cycle analysis was performed with ModFit LT 5.0.9 software. To exclude debris and necrotic cells, events with a lower diameter (forward scatter; FCS) and reduced PI fluorescence (FL3) than the hypodiploid apoptotic cells were eliminated. Two independent experiments were performed.

Series [2] relates to Caco-2 cells. The series is described as follows: Cell cycle distribution by propidium iodide staining and flow cytometry. The class given is cell-based, human. Particulars: dye 12 and 5-FU 10 µM 72 h, sorbitol 600 mM 24 h, versus untreated cells. On the procedure:
as §1
(In flow cytometry, cells or beads pass a laser one at a time.)

In series [3] the test system is Caco-2 cells. The series can be described thus: Morphological analysis by inverted microscopy. The class given is cell-based, human. Particulars: 10 µM, 72 h, 20 or 40× magnification, versus untreated cells. On the procedure: After the near confluency of the culture, trypsinisation, and counting, Caco-2 cells were seeded (3 mL; 3 × 10^4 cells/mL) in 35 mm cell culture dishes with treatment for the tissue culture. Following 48 h of adherence, the cells were treated with the test solutions and incubated for 72 h in an environment protected from light. At every 24 h, cellular morphology was verified in an Olympus CKX41 SF inverted microscope with a 10, 20, or 40× objective, and the analysis was based on comparing the cells with and without treatment. Cell imaging was captured using a DC6V Olympus digital camera coupled to the microscope.

The test system of series [4] is MCF-7 breast adenocarcinoma cell line. The series can be described thus: MTT cell viability assay, MCF-7. The class given is cell-based, human. The following applies: Homo sapiens; for viability at 10 µM: read-out: cell viability percentage in relation with control, MCF-7. On the procedure:
(§2) Caco-2, MCF-7, PC-3, and NHDF cell lines were obtained from the American Type Culture Collection (ATCC) and maintained in 75 cm^2 culture flasks in a humidified atmosphere at 37 °C with 5% carbon dioxide using a LEEC Culture Safe Precision CO2 Incubator. The culture media was renewed every two to three days. The NHDF cell line was cultured in Roswell Park Memorial Institute (RPMI) medium supplemented with 10% of inactivated fetal bovine serum (FBS), 2 mM of L-glutamine, 10 mM of 4-(2-hydroxyethyl)-1-piperazineethanesulfonic acid (HEPES), 1 mM of sodium pyruvate, and 1% of antibiotic/antimycotic mixture (Ab; 10,000 U/mL of penicillin G, […] of streptomycin, and 25 µg/mL of amphotericin B). The PC-3 cell line was also cultured in RPMI 1640 medium supplemented with 10% inactivated FBS and 1% of an antibiotic mixture (Sp; 10,000 U/mL of penicillin G and […] of streptomycin). The Caco-2 and MCF-7 cell lines were grown in Dulbecco’s Modified Eagle Medium (DMEM). Caco-2 was supplemented with 20% of inactivated FBS and 1% of Sp. On the other hand, the MCF-7 medium was complemented with 10% of inactivated FBS and 1% of Ab. All manipulations were performed in a Labculture Class II A2 Biological Safety Cabinet.
(§3) After the near confluency of cultures, cells were detached with a solution of 0.125 g/L trypsin and 0.02 g/L ethylenediaminetetracetic acid (EDTA), counted using the trypan blue method, resuspended, and seeded in 96-well culture plates (100 µL, 2 × 10^4 cells/mL). Following 48 h of adherence, cells were treated with the test solutions and incubated for 72 h. This incubation, as well as the solution manipulations, were performed in an environment protected from light. After the incubation, the medium was replaced with a fresh incomplete culture medium (without FBS and Ab or Sp) and MTT solution (5 mg/mL in phosphate buffer saline (PBS)). After additional incubation for 4 h, the MTT medium was removed, formazan crystals were dissolved in DMSO, and the optical density of each well was measured at 570 nm using a microplate spectrophotometer Bio-Rad xMark. Untreated cells were used as a negative control and 5-FU as the positive control. The results were expressed as the relative cell proliferation relative to the negative control cells. […] To determine the IC50 values, Caco-2, MCF-7, PC-3, and NHDF cells were exposed to increasing concentrations between 0.001 and 100 μM.
Background: Tetrazolium assays rely on reduction of a dye to a coloured formazan, in cell work by metabolically active cells.

Series [5] has as its system PC-3 prostate adenocarcinoma cell line. The series can be described thus: MTT cell viability assay, PC-3. The format is cell-based, human. The following applies: for viability at 10 µM: read-out: cell viability percentage in relation with control, PC-3. The method, then: as §2, §3
For series [6], the system named is normal human dermal fibroblasts (NHDF). The series is described as follows: MTT cell viability assay, NHDF. The class given is cell-based. Particulars: Homo sapiens, NHDF, 72 h of incubation, MTT, protected from light. The method, then: as §2, §3
The nature of series [7]: MTT cell viability assay, NHDF. The format is cell-based, human. Particulars: human, normal human dermal fibroblasts (NHDF), single concentration of 10 µM, 72 h, mean ± SD; read-out: cell viability percentage in relation with control, NHDF. The method, then: as §2, §3
Series [8] is described as follows: MTT cell viability assay, Caco-2. Particulars: human, 72 h, read-out: SI Caco-2 (selectivity index, cancer versus NHDF). The format is cell-based, human. The method, then:
as §2, §3

For series [9], the system named is Caco-2 colorectal adenocarcinoma cell line. The series can be described thus: MTT cell viability assay, Caco-2. The format is cell-based, human. Particulars: Homo sapiens; for IC50: 72 h of incubation, MTT, protected from light; for viability at 10 µM: read-out: cell viability percentage in relation with control, Caco-2. On the procedure: as §2, §3
The mark [10] stands for this setting: MCF7, 72 h, single concentration of 10 µM, 72 h, mean ± SD.
The mark [11] stands for this setting: Homo sapiens, 72 h, single concentration of 10 µM, 72 h, mean ± SD.
[12] abbreviates: Caco-2, 72 h, single concentration of 10 µM, 72 h, mean ± SD.

Molecules are shown by their SMILES. Where two headings read alike, the source gives them in different places.

On to `OC[C@@H](O)[C@@H](O)[C@H](O)[C@@H](O)CO` [sorbitol, reference compound], for which, in the series on Caco-2 cells [1] (Caco-2, dye 12 10 µM 72 h, sorbitol 600 mM 24 h), the “apoptosis induced (percent of cells)” value is “about 28%”. Besides, the “effect on cell cycle distribution” value in the series on Caco-2 cells [2] is on record as “did not significantly affect the Caco-2 cell cycle”.
Broadly, the viability is a per cent measure of how many cells are alive, often set against a control. For orientation: IC50 means the concentration that inhibits the measured activity by half. A low value points to higher potency. Take `O=c1[nH]cc(F)c(=O)[nH]1` [Dye 5-FU, 5-fluorouracil, reference compound]: the “morphological changes of Caco-2 cells” value with Caco-2 cells [3] is “cell size increase with an enlarged and well-defined nucleus”. The viability at 10 µM in series [4] (setting [10]) amounted to 16 ± 1.8%; in [5] (setting [11]) it was 11.9 ± 2.1%; in [9] (setting [12]) it was 25.7 ± 1.02%. In addition, the IC50 in [4] (MCF7, 72 h of incubation, MTT, protected from light) was found to be 1240 nM; in [5] (Homo sapiens, 72 h of incubation, MTT, protected from light), 1720 nM; in series [6] (72 h) it was 6170 nM; in [9] (Caco-2, 72 h), 1700 nM. The “increase in apoptotic cells relative to untreated cells” value in the series on Caco-2 cells [1] (Caco-2, 10 µM, 72 h) is given as “approximately 10%”. Further, the “effect on cell cycle distribution” value in the series on Caco-2 cells [2] is “significant increase in the rate of Caco-2 cells in the S-phase”. For the same molecule, the “SI PC-3 (selectivity index, cancer versus NHDF)” value in [5] (PC-3 versus NHDF, 72 h) is 3.6. For the same molecule, the viability at 72 h, 10 µM in series [7] came to 12.7 ± 3.99%. The selectivity ratio at 72 h in series [8] (Caco-2, Caco-2 versus NHDF) came out at 3.6.
Usually melting point stands for the temperature of the solid-liquid transition. Regarding `CCCCCN1C(=CC=C2CCCC(C=Cc3sc4ccccc4[n+]3CCCCC)=C2Cl)Sc2ccccc21.[I-]` [Dye 17, 2-(2-(2-Chloro-3-(2-(3-pentylbenzo[d]thiazol-2(3H)-ylidene)ethylidene)cyclohex-1-en-1-yl)vinyl)-3-pentylbenzo[d]thiazol-3-ium iodide], the melting point lay within 227 to 228 °C. In addition, the viability at 10 µM in series [4] (setting [10]) turned out to be 11.2 ± 3.11%. Moreover, the viability at 10 µM in [5] (setting [11]) turned out to be 0.43 ± 0.26%. The half-maximal inhibitory concentration (IC50) in series [6] (72 h) was found to be 910 nM. Moreover, the viability at 72 h, 10 µM in [7] stood at 2.26 ± 0.1%. Moreover, the selectivity ratio at 72 h in series [8] (Caco-2, Caco-2 versus NHDF) amounted to 0.4. This molecule also gave an IC50 in series [9] (Caco-2, 72 h) of 2060 nM. In addition, the viability at 10 µM in [9] (setting [12]) was found to be 0.24 ± 0.17%.
The molecule `CN1C(=Cc2ccc3ccccc3[n+]2C)C=Cc2ccccc21.[I-]` [Dye 13, 1-Methyl-2-((1-methylquinolin-2(1H)-ylidene)methyl)quinolin-1-ium iodide] yielded a melting point of 240 to 241 °C. Moreover, the viability at 10 µM in series [4] (setting [10]) was 11.8 ± 1.89%. For the same molecule, in series [5] (setting [11]), the viability at 10 µM was determined as 7.42 ± 1.27%. In addition, half-maximal inhibition in series [6] (72 h) (IC50) required 590 nM. The viability at 72 h, 10 µM in [7] is 8.37 ± 2.26%. For the same molecule, in series [8] (Caco-2, Caco-2 versus NHDF), the selectivity ratio at 72 h was found to be 1. For the same molecule, in series [9] (Caco-2, 72 h), the concentration for half-maximal inhibition (IC50) was 580 nM. Moreover, the viability at 10 µM in series [9] (setting [12]) was determined as 7.81 ± 0.51%.
`CCN1C(=Cc2sc3ccccc3[n+]2CC)Sc2ccccc21.[O-][Cl+3]([O-])([O-])[O-]` [Dye 7, 3-Ethyl-2-((3-ethylbenzo[d]thiazol-2(3H)-ylidene)methyl)benzo[d]thiazol-3-ium perchlorate]: the melting point was in the range of 296 to 297 °C. For the same molecule, the viability at 10 µM in series [4] (MCF7, 72 h) amounted to 0.96 ± 0.61%. The viability at 10 µM in series [5] (Homo sapiens, 72 h) stood at 1.19 ± 0.29%. In [6], this molecule showed an IC50 of 830 nM. In series [7], the viability at 72 h, 10 µM turned out to be 3.34 ± 0.14%. Also, the selectivity ratio at 72 h in series [8] (Caco-2 versus NHDF) is 3. Also, the viability at 10 µM in series [9] (Caco-2, 72 h) was determined as 3.11 ± 0.94%. The molecule also registered an IC50 in series [9] (Caco-2) of 280 nM.
As to `CCN1C(=CC=Cc2[se]c3ccccc3[n+]2CC)[Se]c2ccccc21.[I-]` [Dye 16, 3-Ethyl-2-(3-(3-ethylbenzo[d][1,3]selenazol-2(3H)-ylidene)prop-1-en-1-yl)benzo[d][1,3]selenazol-3-ium iodide], the melting point is 272 to 273 °C (dec.). Also, the viability at 10 µM in [4] (MCF7, single concentration of 10 µM, 72 h, mean ± SD) is 1.39 ± 0.68%. For the same molecule, in series [5] (Homo sapiens, single concentration of 10 µM, 72 h, mean ± SD), the viability at 10 µM is 3.92 ± 0.75%. 480 nM corresponded to half-maximal inhibition in series [6] (IC50). In addition, the viability at 72 h, 10 µM in series [7] worked out at 4.53 ± 0.39%. The selectivity ratio at 72 h in [8] (Caco-2 versus NHDF) is 6.5. Further, half-maximal inhibition in series [9] (Caco-2) (IC50) required 70 nM. Moreover, in series [9] (Caco-2, single concentration of 10 µM, 72 h, mean ± SD), the viability at 10 µM was 1.25 ± 0.39%.
In turn, `CCCN1C=CC(=Cc2cc[n+](CCC)c3ccccc23)c2ccccc21.[I-]` [Dye 14, 1-Propyl-4-((1-propylquinolin-4(1H)-ylidene)methyl)quinolin-1-ium iodide] registered a melting point of 229 to 231 °C. Moreover, the viability at 10 µM in [4] (setting [10]) is 22.9 ± 0.68%. In series [5] (setting [11]), the viability at 10 µM turned out to be 8.03 ± 2.15%. The IC50 in [6] (72 h) came out at 990 nM. The viability at 72 h, 10 µM in series [7] amounted to 1.99 ± 0.25%. Besides, the selectivity ratio at 72 h in series [8] (Caco-2, Caco-2 versus NHDF) was 1.5. Also, 680 nM corresponded to half-maximal inhibition in series [9] (Caco-2, 72 h) (IC50). Besides, the viability at 10 µM in series [9] (setting [12]) came to 9.84 ± 0.93%.

Source of the values: PMC9503608, “An Insight into Symmetrical Cyanine Dyes as Promising Selective Antiproliferative Agents in Caco-2 Colorectal Cancer Cells” (Molecules, 2022).
